Assay results: PMC10935558, “In vitro and in silico studies reveal antidiabetic properties of arylbenzofurans from the root bark of Morus mesozygia Stapf” (Frontiers in Pharmacology, 2024)
Several values for one entry are separate records, joined by “and”; a condition that tells them apart may be missing. Equal entries are not always repeated.

Experiments:
[1] = target: Saccharomyces cerevisiae α-glucosidase; assay: In-vitro α-glucosidase inhibition assay; assay type: biochemical; conditions: for IC50: n = 5 independent experiments in duplicate, read-out: α-glucosidase IC50 (range)
Procedure: The α-glucosidase activity assay was carried out as described previously ([Günther et al., 2021]). Briefly, 10 mM stock solutions of the arylbenzofurans (1—3) prepared in DMSO were diluted in water. Fifteen µl of these diluted moracin compounds were mixed in 96-well microtest plates (VWR, Darmstadt, Germany) with 105 μL of 0.1 M phosphate buffer, pH 6.8 and 15 μL of a 0.5 U/mL Saccharomyces cerevisiae α-glucosidase solution (Sigma-Aldrich, Taufkirchen, Germany). The final arylbenzofurans concentrations range from 0–200 μM, while the final concentration of the extract and fractions ranges from 100–500 μg/mL. […] Following 5 min pre-incubation at 37°C, the reaction was started with 15 μL of 10 mM p-nitrophenyl-α-D-glucopyranoside (Sigma-Aldrich, Taufkirchen, Germany). After 20 min at 37 °C, 50 μL 2 M Na2CO3 stop solution was added (VWR, Darmstadt, Germany). The absorbance was measured photometrically at 405 nm (iEMS Reader MF). Five independent experiments were performed in duplicate.
(§1) GraphPad Prism, version 5.0 was used for the statistical analysis of data, which were expressed as mean ± standard deviation. Multiple comparisons of IC50 values were carried out by using one-way ANOVA followed by Tukey’s test.

[2] = target: T1, porcine pancreatic α-amylase (Sus scrofa, UniProt P00690); assay: In-vitro α-amylase inhibition assay; assay type: biochemical; conditions: n = 2 independent experiments in duplicate; read-out: α-amylase IC50 (range)
T1 sequence (P00690 16-511): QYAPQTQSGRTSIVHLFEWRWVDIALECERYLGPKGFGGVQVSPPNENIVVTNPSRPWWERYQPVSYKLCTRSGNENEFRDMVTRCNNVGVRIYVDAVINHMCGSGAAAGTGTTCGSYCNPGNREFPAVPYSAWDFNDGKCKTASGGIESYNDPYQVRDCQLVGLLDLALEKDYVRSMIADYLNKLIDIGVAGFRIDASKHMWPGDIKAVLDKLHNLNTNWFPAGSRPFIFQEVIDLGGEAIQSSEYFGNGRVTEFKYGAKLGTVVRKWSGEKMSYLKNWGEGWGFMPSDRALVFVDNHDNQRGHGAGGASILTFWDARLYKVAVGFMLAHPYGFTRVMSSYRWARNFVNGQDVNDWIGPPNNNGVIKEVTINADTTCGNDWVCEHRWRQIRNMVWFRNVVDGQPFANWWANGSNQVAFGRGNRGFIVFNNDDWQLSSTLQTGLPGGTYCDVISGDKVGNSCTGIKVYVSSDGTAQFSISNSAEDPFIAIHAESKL
Procedure: To this end, moracins, extracts, and fraction stocks were diluted with water to give concentrations of 1,000 and 3,000 μg/mL. Of these dilutions, 15 μL were mixed with 35 µL distilled H2O and 50 μL of porcine pancreatic α-amylase (2.5 U/mL) in 20 mM sodium phosphate buffer containing 6.7 mM NaCl, pH 6.9. Following 10 min pre-incubation at 25°C, 50 μL 1% starch solution that had been cooked for 15 min in the same buffer was added to start the reaction. After 10 min at 25°C, 100 μL of a color reagent (1% 3,5-dinitrosalicylic acid and 30% sodium potassium tartrate in 0.4 M NaOH, all chemicals from Sigma-Aldrich, Taufkirchen, Germany) were added. The mixture was incubated for an additional 5 min at 100 °C and cooled to room temperature before the absorbance was measured at 540 nm by a microplate reader (iEMS Reader MF, MTX Lab Systems, Helsinki, Finland). […] The percentage inhibition of α-amylase was calculated by using the following equation: Inhibition%=AbC−AbCblank−AbS−AbSblank/AbC−AbCblank×100 AbC, absorbance of the control; AbS, absorbance of the sample.
as §1

[3] = target: T2, human recombinant DPP4 enzyme (Homo sapiens, UniProt P27487); assay: In-vitro dipeptidyl peptidase-4 (DPP4) inhibition assay (inhibitor screening kit); assay type: biochemical
T2 construct: purchased abcam, Berlin, Germany
Procedure: The DPP4 inhibitor activities of the three moracins were determined by using the DPP4 inhibitor screening kit following the manufacturer’s instructions (abcam, Berlin, Germany). The established DPP4 inhibitor sitagliptin served as the positive inhibitor control, whereas assay buffer was only used as the control for DPP4 enzyme activity and was set to 100%. 30 μL of assay buffer and 10 μL human recombinant DPP4 enzyme were mixed in 96-well microtiter plates with 10 μL of 0.1- or 1-mM moracin solutions, 1 mM sitagliptin, or assay buffer. Following 10 min pre-incubation at 37°C, 50 μL of substrate solution was added to each well. The fluorescence signal (excitation wavelength of 360 nm, emission wavelength of 465 nm) was measured after 30 min incubation at 37°C (Tecan Infinite 200 micro-plate reader).
as §1, with “test. For the DPP4 inhibition results, a one-way ANOVA followed by Dunnett’s post-hoc test was conducted to compare the means of treatment groups to that of the control group without inhibitor.” for “test.”

[4] = tested on: chronic hepatitis C virus (HCV) cell; design: method as in Hyun et al., 2007; conditions: antiviral assay; ref Hyun et al., 2007; read-out: IC50 against HCV cell; cited from earlier work
[5] = tested on: H9c2 cells; design: method as in Zheng et al., 2017; conditions: doxorubicin-induced myocardial toxicity in H9c2 cells; ref Zheng et al., 2017; read-out: EC50 cytoprotective effect; cited from earlier work
[6] = tested on: protein tyrosine phosphatase 1B (PTP1B); design: method as in Cui et al., 2006; conditions: ref Cui et al., 2006; cited from earlier work

T2 sequence (P27487 whole entry): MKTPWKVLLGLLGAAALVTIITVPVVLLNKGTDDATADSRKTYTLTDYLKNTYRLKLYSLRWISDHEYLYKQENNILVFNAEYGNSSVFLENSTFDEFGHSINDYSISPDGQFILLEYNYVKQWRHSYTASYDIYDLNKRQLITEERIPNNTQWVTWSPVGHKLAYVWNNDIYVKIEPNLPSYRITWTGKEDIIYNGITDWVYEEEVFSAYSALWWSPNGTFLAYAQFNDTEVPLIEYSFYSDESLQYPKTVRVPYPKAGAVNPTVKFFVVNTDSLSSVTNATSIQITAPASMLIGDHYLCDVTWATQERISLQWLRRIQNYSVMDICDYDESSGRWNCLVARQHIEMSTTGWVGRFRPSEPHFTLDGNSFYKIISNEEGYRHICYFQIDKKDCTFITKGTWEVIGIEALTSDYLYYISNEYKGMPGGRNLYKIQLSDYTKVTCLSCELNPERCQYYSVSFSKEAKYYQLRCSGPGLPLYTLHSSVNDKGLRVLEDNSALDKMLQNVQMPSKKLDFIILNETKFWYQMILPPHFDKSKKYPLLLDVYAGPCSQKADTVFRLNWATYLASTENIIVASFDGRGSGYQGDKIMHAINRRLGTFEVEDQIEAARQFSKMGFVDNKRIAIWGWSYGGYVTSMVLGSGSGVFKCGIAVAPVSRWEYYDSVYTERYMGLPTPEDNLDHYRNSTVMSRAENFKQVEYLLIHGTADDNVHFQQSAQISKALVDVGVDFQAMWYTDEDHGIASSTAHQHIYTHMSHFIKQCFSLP

| inhibition at 100 µM ([3]; at 100 μM, read-out: inhibitory activity against DPP4) [%] | SMILES | IC50 [1] | IC50 [2] [µM] | DPP4 inhibition (in words) [3] | IC50 [4] [µM] | EC50 [5] [µM] | inhibitory effect against PTP1B (in words) [6] | fold less potent than 1 and 2 (α-glucosidase) [1] [fold] | residual peptidase (DPP4) activity compared to control ([3]; at 100 μM) [%] |
| --- | --- | --- | --- | --- | --- | --- | --- | --- | --- |
| 15 | CC(C)(O)CCc1c(O)ccc2cc(-c3cc(O)cc(O)c3)oc12 [Compound 1, 5-(6-hydroxy-7-(3-hydroxy-3-methylbutyl)benzofuran-2-yl)benzene-1,3-diol] | ~17 µM and 16.9 µM | > 300 | moderate inhibitors | – | – | – | – | – |
| – | CC1(C)Oc2cc3oc(-c4cc(O)cc(O)c4)cc3cc2C[C@H]1O [Compound 2, Moracin P] | ~17 µM and 16.6 µM | > 300 | – | 42.9 | 8.8 | marginal inhibitory effect | – | – |
| – | Oc1cc(O)cc(-c2cc3ccc(O)cc3o2)c1 [Compound 3, Moracin M] | 40.9 µM | > 300 | moderate inhibitors | > 100 | – | – | ~2.4 | 62.7 |
